Measured values from PubChem BioAssay (NCI).
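96-well plates; 48 h exposure; 5 concentrations. Endpoints by linear interpolation between flanking doses. Not reached: highest tested concentration assigned. Abbreviation: GI50, concentration required for 50% inhibition of growth. TGI denotes the concentration required for complete inhibition of growth.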

What was measured:
Experiment in all cases: NCI-60 cell line screen, 48 h
786-0 renal = test system: 786-0 renal
A498 renal = test system: A498 renal
A549 NSCLC = test system: A549 NSCLC
ACHN renal = test system: ACHN renal
BT-549 breast = test system: BT-549 breast
CAKI-1 renal = test system: CAKI-1 renal
COLO 205 colon = test system: COLO 205 colon
DU-145 prostate = test system: DU-145 prostate
HCC-2998 colon = test system: HCC-2998 colon
HCT-116 colon = test system: HCT-116 colon
HCT-15 colon = test system: HCT-15 colon
HL-60(TB) leukemia = test system: HL-60(TB) leukemia
HOP-62 NSCLC = test system: HOP-62 NSCLC
HOP-92 NSCLC = test system: HOP-92 NSCLC
HS 578T breast = test system: HS 578T breast
HT29 colon = test system: HT29 colon
IGROV1 ovarian = test system: IGROV1 ovarian
K-562 leukemia = test system: K-562 leukemia
KM12 colon = test system: KM12 colon
LOX IMVI melanoma = test system: LOX IMVI melanoma
M14 melanoma = test system: M14 melanoma
MALME-3M melanoma = test system: MALME-3M melanoma
MCF7 breast = test system: MCF7 breast
MDA-MB-231 breast = test system: MDA-MB-231 breast
MDA-MB-435 = test system: MDA-MB-435
NCI-H226 lung = test system: NCI-H226 lung
NCI-H23 lung = test system: NCI-H23 lung
NCI-H460 lung = test system: NCI-H460 lung
NCI-H522 lung = test system: NCI-H522 lung
NCI/ADR-RES ovarian = test system: NCI/ADR-RES ovarian
OVCAR-3 ovarian = test system: OVCAR-3 ovarian
OVCAR-4 ovarian = test system: OVCAR-4 ovarian
OVCAR-5 ovarian = test system: OVCAR-5 ovarian
OVCAR-8 ovarian = test system: OVCAR-8 ovarian
PC-3 prostate = test system: PC-3 prostate
RPMI-8226 leukemia = test system: RPMI-8226 leukemia
RXF 393 renal = test system: RXF 393 renal
SF-268 CNS = test system: SF-268 CNS
SF-295 CNS = test system: SF-295 CNS
SF-539 CNS = test system: SF-539 CNS
SK-MEL-2 melanoma = test system: SK-MEL-2 melanoma
SK-MEL-28 melanoma = test system: SK-MEL-28 melanoma
SK-MEL-5 melanoma = test system: SK-MEL-5 melanoma
SK-OV-3 ovarian = test system: SK-OV-3 ovarian
SN12C renal = test system: SN12C renal
SNB-19 CNS = test system: SNB-19 CNS
SNB-75 CNS = test system: SNB-75 CNS
SW-620 colon = test system: SW-620 colon
T-47D breast = test system: T-47D breast
U251 CNS = test system: U251 CNS
UACC-257 melanoma = test system: UACC-257 melanoma
UACC-62 melanoma = test system: UACC-62 melanoma
UO-31 renal = test system: UO-31 renal
CCRF-CEM leukemia = test system: CCRF-CEM leukemia
EKVX NSCLC = test system: EKVX NSCLC
MOLT-4 leukemia = test system: MOLT-4 leukemia
SR leukemia = test system: SR leukemia
TK-10 renal = test system: TK-10 renal

Compound `O=C1CC(c2ccsc2)c2snc(-c3ccc(Cl)cc3)c2N1` (stereo unspecified) has a GI50 (786-0 renal) of 7.65 µM, a TGI (786-0 renal) greater than 100 µM and a GI50 (A498 renal) of 1.09 µM. The TGI (A498 renal) was 7.94 µM, the GI50 (A549 NSCLC) was 0.626 µM and the TGI (A549 NSCLC) was greater than 100 µM. It also gave a GI50 (ACHN renal) of 5.39 µM, a TGI (ACHN renal) greater than 100 µM and a GI50 (BT-549 breast) of 2.26 µM. It also gave a TGI (BT-549 breast) greater than 100 µM, a GI50 (CAKI-1 renal) of 1.03 µM and a TGI (CAKI-1 renal) greater than 100 µM. It also gave a GI50 (COLO 205 colon) of 0.527 µM, a TGI (COLO 205 colon) of 2.57 µM and a GI50 (DU-145 prostate) of 2.68 µM. The TGI (DU-145 prostate) was greater than 100 µM, the GI50 (HCC-2998 colon) was 1.99 µM and the TGI (HCC-2998 colon) was greater than 100 µM. For the same compound, the GI50 (HCT-116 colon) was 0.515 µM, the TGI (HCT-116 colon) was greater than 100 µM and the GI50 (HCT-15 colon) was 0.489 µM. For the same compound, the TGI (HCT-15 colon) was greater than 100 µM, the GI50 (HL-60(TB) leukemia) was 1.11 µM and the TGI (HL-60(TB) leukemia) was 3.33 µM. For the same compound, the GI50 (HOP-62 NSCLC) was 2.63 µM, the TGI (HOP-62 NSCLC) was 35.2 µM and the GI50 (HOP-92 NSCLC) was 3.87 µM. The TGI (HOP-92 NSCLC) was 81.8 µM, the GI50 (HS 578T breast) was 2.59 µM and the TGI (HS 578T breast) was greater than 100 µM. For the same compound, the GI50 (HT29 colon) was 0.4 µM, the TGI (HT29 colon) was greater than 100 µM and the GI50 (IGROV1 ovarian) was 2.87 µM. It also gave a TGI (IGROV1 ovarian) greater than 100 µM, a GI50 (K-562 leukemia) of 0.356 µM and a TGI (K-562 leukemia) greater than 100 µM. For the same compound, the GI50 (KM12 colon) was 0.385 µM, the TGI (KM12 colon) was greater than 100 µM and the GI50 (LOX IMVI melanoma) was 1 µM. The TGI (LOX IMVI melanoma) was greater than 100 µM, the GI50 (M14 melanoma) was 0.804 µM and the TGI (M14 melanoma) was greater than 100 µM. It also gave a GI50 (MALME-3M melanoma) of 2.72 µM, a TGI (MALME-3M melanoma) greater than 100 µM and a GI50 (MCF7 breast) of 0.563 µM. For the same compound, the TGI (MCF7 breast) was greater than 100 µM, the GI50 (MDA-MB-231 breast) was 1.33 µM and the TGI (MDA-MB-231 breast) was greater than 100 µM. It also gave a GI50 (MDA-MB-435) of 0.26 µM, a TGI (MDA-MB-435) of 0.977 µM and a GI50 (NCI-H226 lung) of 7.55 µM. The TGI (NCI-H226 lung) was greater than 100 µM, the GI50 (NCI-H23 lung) was 1.76 µM and the TGI (NCI-H23 lung) was greater than 100 µM. It also gave a GI50 (NCI-H460 lung) of 0.581 µM, a TGI (NCI-H460 lung) greater than 100 µM and a GI50 (NCI-H522 lung) of 0.626 µM. For the same compound, the TGI (NCI-H522 lung) was 13.5 µM, the GI50 (NCI/ADR-RES ovarian) was 0.364 µM and the TGI (NCI/ADR-RES ovarian) was 2.37 µM. It also gave a GI50 (OVCAR-3 ovarian) of 0.694 µM, a TGI (OVCAR-3 ovarian) of 4.78 µM and a GI50 (OVCAR-4 ovarian) of 5.6 µM. For the same compound, the TGI (OVCAR-4 ovarian) was greater than 100 µM, the GI50 (OVCAR-5 ovarian) was 5.92 µM and the TGI (OVCAR-5 ovarian) was greater than 100 µM. The GI50 (OVCAR-8 ovarian) was 3.01 µM, the TGI (OVCAR-8 ovarian) was greater than 100 µM and the GI50 (PC-3 prostate) was 2.05 µM. For the same compound, the TGI (PC-3 prostate) was greater than 100 µM, the GI50 (RPMI-8226 leukemia) was 0.6 µM and the TGI (RPMI-8226 leukemia) was 5.44 µM. The GI50 (RXF 393 renal) was 3.49 µM, the TGI (RXF 393 renal) was 50.8 µM and the GI50 (SF-268 CNS) was 4.87 µM. It also gave a TGI (SF-268 CNS) greater than 100 µM, a GI50 (SF-295 CNS) of 1.87 µM and a TGI (SF-295 CNS) of 19.7 µM. It also gave a GI50 (SF-539 CNS) of 2.9 µM, a TGI (SF-539 CNS) greater than 100 µM and a GI50 (SK-MEL-2 melanoma) of 3.93 µM. The TGI (SK-MEL-2 melanoma) was greater than 100 µM, the GI50 (SK-MEL-28 melanoma) was 3.11 µM and the TGI (SK-MEL-28 melanoma) was greater than 100 µM. For the same compound, the GI50 (SK-MEL-5 melanoma) was 0.404 µM, the TGI (SK-MEL-5 melanoma) was 2.4 µM and the GI50 (SK-OV-3 ovarian) was 2.17 µM. The TGI (SK-OV-3 ovarian) was 12 µM, the GI50 (SN12C renal) was 3.77 µM and the TGI (SN12C renal) was greater than 100 µM. For the same compound, the GI50 (SNB-19 CNS) was 3.78 µM, the TGI (SNB-19 CNS) was greater than 100 µM and the GI50 (SNB-75 CNS) was 1.71 µM. The TGI (SNB-75 CNS) was 9.71 µM, the GI50 (SW-620 colon) was 0.429 µM and the TGI (SW-620 colon) was greater than 100 µM. The GI50 (T-47D breast) was 0.537 µM, the TGI (T-47D breast) was greater than 100 µM and the GI50 (U251 CNS) was 1.75 µM. It also gave a TGI (U251 CNS) greater than 100 µM, a GI50 (UACC-257 melanoma) of 4.08 µM and a TGI (UACC-257 melanoma) greater than 100 µM. The GI50 (UACC-62 melanoma) was 0.859 µM, the TGI (UACC-62 melanoma) was greater than 100 µM and the GI50 (UO-31 renal) was 3.86 µM. It also gave a TGI (UO-31 renal) greater than 100 µM.
`O=C(CC(c1ccccc1)C(C(=O)c1ccncc1)C(CC(=O)c1ccncc1)c1ccccc1)c1ccncc1` (stereo unspecified) was tested, and the TGI (786-0 renal) was greater than 100 µM, the TGI (A498 renal) was greater than 100 µM and the TGI (A549 NSCLC) was greater than 100 µM. It also gave a TGI (ACHN renal) greater than 100 µM, a TGI (BT-549 breast) of 57.3 µM and a TGI (CAKI-1 renal) greater than 100 µM. The TGI (CCRF-CEM leukemia) was greater than 100 µM, the TGI (COLO 205 colon) was greater than 100 µM and the TGI (DU-145 prostate) was greater than 100 µM. For the same compound, the TGI (EKVX NSCLC) was greater than 100 µM, the TGI (HCC-2998 colon) was greater than 100 µM and the TGI (HCT-116 colon) was greater than 100 µM. The TGI (HCT-15 colon) was greater than 100 µM, the TGI (HL-60(TB) leukemia) was greater than 100 µM and the TGI (HOP-62 NSCLC) was greater than 100 µM. The TGI (HOP-92 NSCLC) was greater than 100 µM, the TGI (HS 578T breast) was greater than 100 µM and the TGI (HT29 colon) was greater than 100 µM. The TGI (IGROV1 ovarian) was greater than 100 µM, the TGI (KM12 colon) was greater than 100 µM and the TGI (LOX IMVI melanoma) was greater than 100 µM. For the same compound, the TGI (M14 melanoma) was greater than 100 µM, the TGI (MALME-3M melanoma) was greater than 100 µM and the TGI (MDA-MB-231 breast) was greater than 100 µM. The TGI (MDA-MB-435) was greater than 100 µM, the TGI (MOLT-4 leukemia) was greater than 100 µM and the TGI (NCI-H226 lung) was greater than 100 µM. It also gave a TGI (NCI-H23 lung) greater than 100 µM, a TGI (NCI-H460 lung) greater than 100 µM and a TGI (NCI/ADR-RES ovarian) greater than 100 µM. The TGI (OVCAR-3 ovarian) was greater than 100 µM, the TGI (OVCAR-5 ovarian) was greater than 100 µM and the TGI (OVCAR-8 ovarian) was greater than 100 µM. For the same compound, the TGI (PC-3 prostate) was greater than 100 µM, the TGI (RPMI-8226 leukemia) was greater than 100 µM and the TGI (SF-268 CNS) was greater than 100 µM. For the same compound, the TGI (SF-295 CNS) was 70.3 µM, the TGI (SK-MEL-2 melanoma) was greater than 100 µM and the TGI (SK-MEL-28 melanoma) was greater than 100 µM. The TGI (SK-OV-3 ovarian) was 61.1 µM, the TGI (SNB-19 CNS) was greater than 100 µM and the TGI (SNB-75 CNS) was greater than 100 µM. For the same compound, the TGI (SR leukemia) was greater than 100 µM, the TGI (SW-620 colon) was greater than 100 µM and the TGI (T-47D breast) was greater than 100 µM. The TGI (TK-10 renal) was greater than 100 µM, the TGI (U251 CNS) was greater than 100 µM and the TGI (UACC-257 melanoma) was greater than 100 µM. The TGI (UACC-62 melanoma) was greater than 100 µM and the TGI (UO-31 renal) was greater than 100 µM.
